Measurements from patent US20230096978A1, “MOR RECEPTOR AGONIST COMPOUND, PREPARATION METHOD THEREFOR, AND USE THEREOF” (CHENGDU EASTON BIOPHARMACEUTICALS CO., LTD., priority 2020, published 2023).
Several values for one entry are separate records, joined by “and”; a condition that tells them apart may be missing. Identical values can stand only once. Like-named read-outs stand apart in the source and are kept apart here.

How the values were obtained:
[1] = target: T1, KOR(Kappa opioid receptor) (Homo sapiens, UniProt P41145); experiment: cAMP agonistic activity assay, KOR stably transfected cell line; type: cell-based
T1 construct: expressed in transfected cells
Procedure: (§1) 1. Test purpose: to detect the agonistic activity of compound samples utilizing MOR (Mu opioid Receptor), KOR(Kappa opioid receptor), and DOR (Delta Opioid Receptor) stably transfected cell lines and using the established cAMP assay detection platform.
(§2) a. All samples were dissolved with DMSO to a storage concentration of 30 mM.
(§3) b. A sample dilution sequence was prepared on a 384-well LDV plate. The first concentration point is 6 mM, with a 3.162-fold serial dilution and a total of 11 concentration points.
(§4) c. The sample dilution sequence was transferred to an test plate (Corning-3824) using the Echo machine, corresponding to transfer of 50 nL per well.
(§5) d. 50 nL of HPE or ZPE was transferred to the corresponding location of the test plate using the Echo machine.
(§6) 2.2 Test operation of cAMP agonistic activity detection
(§7) a. Assay buffer and stimulation buffer (STB) required for the test were formulated.
(§8) b. 5 μL of STB was firstly added to each well of the test plate (with 50 nL of compound already in the well), and then 5 μL of cell suspension was added thereto.
(§9) c. The test plate was incubated in a constant temperature incubator at 37° C.
(§10) d. A standard concentration curve of cAMP was created. The first concentration point was 2848 nM, with a 4-fold serial dilution and a total of 16 detection concentrations, and each concentration point was in triplicate.
(§11) e. cAMP detection reagent (Cisbio #62AM4PEJ) was added to the sample test plate and cAMP standard concentration test plate. 5 μL of D2 reagent was added first, and then 5 μL of Cryptate reagent was added.
(§12) f. The test plates were read on the Envision after being left for 60 minutes at room temperature.

[2] = target: T2, MOR (Mu opioid Receptor) (Homo sapiens, UniProt P35372); experiment: cAMP agonistic activity assay, MOR stably transfected cell line; type: cell-based; details: for EC50 against μ receptor relative to that of TRV130: ratio of EC50 to TRV130
T2 construct: expressed in transfected cells
Procedure: as §1, §2, §3, §4, §5, §6, §7, §8, §9, §10, §11, §12

[3] = Pharmacokinetic test after single tail vein injection; type: in vivo; details: SD (Sprague-Dawley), rat, plasma, iv; SD rats, single tail vein injection 2 mg/kg, n = 3
Procedure: 1. Test purpose: to investigate the pharmacokinetic parameters of each compound in the Experimental Example after a single tail vein administration.
Administered via tail vein at an equal dose of 2 mg/kg;
Blood was collected from the jugular vein before administration and 5 min, 10 min, 15 min, 20 min, 30 min, 45 min, 1h, 2h, 4h, 6h, 8h, 24 h after administration. 200 μL of whole blood was taken at each time point and was placed in an anticoagulation tube containing EDTA-K2, and centrifuged at 2000g at a low temperature of 4° C. to separate the plasma. The plasma was transferred to a microcentrifuge tube, and stored in a −80° C. refrigerator for later use.
By establishing a reliable LC/MS/MS analysis method, the blood concentration of each sample was detected, and the pharmacokinetic parameters of each compound were calculated.

[4] = system: thermal radiation tail-flick pain threshold in rats; experiment: Rat thermal radiation tail-flick pain threshold test; type: in vivo, SD rats; details: 0.7 mg/kg tail vein injection, Mean ± SEM; for Maximum percentage of analgesia (MPE) 0.5 h: 0.5 h after administration, n = 10; for Maximum percentage of analgesia (MPE) 1 h: 1 h after administration; for Maximum percentage of analgesia (MPE) 2 h: 2 h after administration; for Maximum percentage of analgesia (MPE) 3 h: 3 h after administration
Procedure: 1. Test purpose: to measure the effect of each compound sample on the pain threshold of rats by using the rat thermal radiation tail flick method.
Administered via tail vein injection at an equal dose of 0.7 mg/kg;
The rats (SD rats, SPF grade, with body weight of 220-250g, purchased from Beijing Vital River Laboratory Animal Technology Co., Ltd.) were firstly fixed in a special plastic cylinder, so that their tails were exposed and drooped naturally. Test was performed after the animals were quiet. […] The measured time interval was the tail-flick response latency, which is 3 s to 5 s in normal rats, and those with greater than 5 s or less than 3 s were excluded. Then, measurement was made every 5 min, and the mean of three measurements was taken as the basic nociceptive threshold. If the animal stayed more than 10 s under analgesic effect, the irradiation was stopped and 10 s was used as the upper limit of the tail flick latency to avoid burning the skin by the too-long irradiation. After the rats were given a certain dose of the drug, the pain thresholds of the rats were measured at different times.
After the rats were given a certain dose of the drug, the pain threshold of the rats was measured at 0.5 h, 1 h, 2 h, and 3 h. The maximum percentage of analgesia (% MPE) after administration was calculated, of which the calculation formula was as follows: MPE(%)=(pain threshold after administration−pain threshold before administration)/(10s−pain threshold before administration))×100%

[5] = target: T3, DOR (Delta Opioid Receptor) (Homo sapiens, UniProt P41143); experiment: cAMP agonistic activity assay, DOR stably transfected cell line; type: cell-based
T3 construct: expressed in transfected cells
Procedure: as §1, §2, §3, §4, §5, §6, §7, §8, §9, §10, §11, §12

[6] = system: colonic motility (glass bead expulsion) in mice; experiment: Mouse colonic glass bead expulsion time test; type: in vivo; details: C57BL/6 mice, 1 mg/kg single tail vein injection, n = 10; for Mean Expulsion Time: beads inserted 20 min after administration, limit 120 min, Mean ± S.E.M.; for Expulsion Time Prolonging Rate (ETPR): relative to solvent control
Procedure: 1. Test purpose: to test the effect of the test compound on the expulsion time of colonic glass beads from mice, and to preliminarily investigate its inhibitory effect on colonic motility.
Administered via tail vein injection at an equal dose of 1 mg/kg;
After 6-7 days of adaptive feeding of C57BL/6 mice, the animals fasted with free access to water for 12-16 hours and then randomly divided into 10 groups, 10 mice per group. Each group employed a single administration via tail vein, and the administration volume was 10 mL/kg. The solvent control group was given a vehicle (normal saline) via tail vein. 20 min after the administration, glass beads preheated to 37° C. with a diameter of 2 mm were pushed into the rectum at a distance of 2 cm through the anus. Timing was immediately started and the animals were placed individually in the observation cage to observe the time for the glass beads to be expulsed (the observation time limit was 120 min). If the glass beads had not been expulsed by the end of the observation period, the animals were euthanized and the rectum was dissected to confirm that the glass beads were still in the intestinal tract.
Colonic Expulsion Rate (CER)=number of animals that successfully expulsed glass beads during the observation period/total number of animals in this group×100%;
Expulsion Time Prolonging Rate (ETPR)=(mean expulsion time of test sample group—mean expulsion time of solvent control group)/mean expulsion time of solvent control group×100%;
Percent Maximum Possible Effect (% Maximum Possible Effect, Percent MPE)=(mean expulsion time of test sample group—mean expulsion time of solvent control group)/(120-mean expulsion time of solvent control group)×100%; Calculation and related statistical processing were performed on the test data using Microsoft Office Excel 2007 and GraphPad Prism software. Unless otherwise specified, the data were shown as mean±standard error (Mean±S.E.M.), and the comparison between groups was performed by one-way ANOVA, and the Dunnett's method was used for pairwise comparison test.

[7] = agonistic effect, cAMP assay, κ opioid receptor, read-out: EC50 κ
[8] = agonistic effect, cAMP assay, μ opioid receptor, read-out: EC50 μ
[9] = agonistic effect, cAMP assay, δ opioid receptor, read-out: EC50 δ
[10] = n = 10, listed as positive compound, 0.7 mg/kg

T1 sequence (P41145 whole entry): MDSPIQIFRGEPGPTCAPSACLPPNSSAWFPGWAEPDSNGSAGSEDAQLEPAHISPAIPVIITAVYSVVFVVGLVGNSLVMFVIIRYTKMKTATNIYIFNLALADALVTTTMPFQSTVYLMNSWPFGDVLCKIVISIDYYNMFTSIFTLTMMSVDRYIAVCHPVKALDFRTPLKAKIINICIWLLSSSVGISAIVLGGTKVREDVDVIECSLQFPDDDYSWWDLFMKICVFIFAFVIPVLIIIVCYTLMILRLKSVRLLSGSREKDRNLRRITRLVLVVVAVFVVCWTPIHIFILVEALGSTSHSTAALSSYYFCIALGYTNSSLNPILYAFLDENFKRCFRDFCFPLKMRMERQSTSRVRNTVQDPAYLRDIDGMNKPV
T3 sequence (P41143 whole entry): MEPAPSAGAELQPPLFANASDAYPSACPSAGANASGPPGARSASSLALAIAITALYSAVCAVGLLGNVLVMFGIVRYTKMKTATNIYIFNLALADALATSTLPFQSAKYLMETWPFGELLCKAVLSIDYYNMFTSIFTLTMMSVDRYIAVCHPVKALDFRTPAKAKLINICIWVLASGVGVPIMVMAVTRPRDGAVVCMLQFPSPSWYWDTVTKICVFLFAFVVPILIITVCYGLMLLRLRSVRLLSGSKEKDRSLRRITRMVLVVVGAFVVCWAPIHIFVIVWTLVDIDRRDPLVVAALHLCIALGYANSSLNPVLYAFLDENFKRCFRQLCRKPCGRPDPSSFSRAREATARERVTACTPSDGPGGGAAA
T2 sequence (P35372 whole entry, species assumed): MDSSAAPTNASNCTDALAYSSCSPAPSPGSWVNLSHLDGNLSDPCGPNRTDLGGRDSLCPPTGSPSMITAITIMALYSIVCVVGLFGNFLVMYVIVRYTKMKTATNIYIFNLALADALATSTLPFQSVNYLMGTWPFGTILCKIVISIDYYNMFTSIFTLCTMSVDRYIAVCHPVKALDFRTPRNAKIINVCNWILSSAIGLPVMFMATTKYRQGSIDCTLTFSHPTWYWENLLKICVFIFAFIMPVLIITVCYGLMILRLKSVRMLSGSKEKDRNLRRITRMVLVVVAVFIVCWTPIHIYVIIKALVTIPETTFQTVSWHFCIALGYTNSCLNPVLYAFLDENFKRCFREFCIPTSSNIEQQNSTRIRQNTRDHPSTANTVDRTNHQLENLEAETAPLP

COc1ccc2occ(CNCC[C@@]3(c4ccccn4)CCOC4(CCCC4)C3)c2c1 [Example 1]
EC50 [1]: 51.4 µM | EC50 [2]: 0.00021 µM | EC50 against μ receptor relative to that of TRV130 [2]: about 1/10 | AUC(0-t) [3]: 585 ± 25.9 ng·h/mL | Cmax [3]: 601 ± 32.5 ng/mL | Tmax [3]: 6.6 ± 3 min | half-life [3]: 190.2 ± 1.2 min | Maximum percentage of analgesia (MPE) 0.5 h [4]: 100.00% | Maximum percentage of analgesia (MPE) 1 h ([4]; n = 10, 0.7 mg/kg): 89.95±7.06% and 89.95% | Maximum percentage of analgesia (MPE) 2 h ([4]; n = 10, 0.7 mg/kg): 86.51±10.06% and 86.51% | Maximum percentage of analgesia (MPE) 3 h ([4]; n = 10, 0.7 mg/kg): 65.91±5.76% and 65.91% | EC50 [5]: 65.3 µM | Mean Expulsion Time [6]: 17.40 ± 5.84^※※♦♦ min | Percent Maximum Possible Effect (Percent MPE) [6]: 11.55% | Expulsion Time Prolonging Rate (ETPR) [6]: 333.92%

c1ccc([C@]2(CCNCc3coc4ccc(O[C@@H]5CCOC5)cc34)CCOC3(CCCC3)C2)nc1 [Example 3]
EC50 [1, 7]: 56.8 µM | EC50 [2, 8]: 0.00056 µM | EC50 against μ receptor relative to that of TRV130 [2]: about 1/10 | AUC(0-t) [3]: 532 ± 50.6 ng·h/mL | Cmax [3]: 543 ± 72.8 ng/mL | Tmax [3]: 9 ± 1.2 min | half-life [3]: 177 ± 20.4 min | Maximum percentage of analgesia (MPE) 0.5 h [4]: 100.00% | Maximum percentage of analgesia (MPE) 1 h ([4]; n = 10, 0.7 mg/kg): 86.89±7.34% and 86.89% | Maximum percentage of analgesia (MPE) 2 h ([4]; n = 10, 0.7 mg/kg): 82.95±8.69% and 82.95% | Maximum percentage of analgesia (MPE) 3 h ([4]; n = 10, 0.7 mg/kg): 61.46±8.58% and 61.46% | EC50 [5, 9]: 32.5 µM | Mean Expulsion Time [6]: 18.99 ± 6.55^※※♦♦ min | Percent Maximum Possible Effect (Percent MPE) [6]: 12.91% | Expulsion Time Prolonging Rate (ETPR) [6]: 373.57%

Fc1ccc([C@]2(CCNCc3ccccc3-c3ccncc3)CCOC3(CCCC3)C2)cc1 [Example 4]
EC50 [1, 7]: 54.5 µM | EC50 [2, 8]: 0.0045 µM | EC50 against μ receptor relative to that of TRV130 [2]: about 1/10 | AUC(0-t) [3]: 563 ± 31.8 ng·h/mL | Cmax [3]: 552 ± 48.7 ng/mL | Tmax [3]: 10.8 ± 1.8 min | half-life [3]: 194 ± 6.6 min | Maximum percentage of analgesia (MPE) 0.5 h [4]: 100.00% | Maximum percentage of analgesia (MPE) 1 h ([4]; n = 10, 0.7 mg/kg): 85.79±9.25% and 85.79% | Maximum percentage of analgesia (MPE) 2 h ([4]; n = 10, 0.7 mg/kg): 83.78±11.31% and 83.78% | Maximum percentage of analgesia (MPE) 3 h ([4]; n = 10, 0.7 mg/kg): 60.92±2.45% and 60.92% | EC50 [5, 9]: 42.7 µM | Mean Expulsion Time [6]: 19.13 ± 3.93^※※♦♦ min | Percent Maximum Possible Effect (Percent MPE) [6]: 13.04% | Expulsion Time Prolonging Rate (ETPR) [6]: 377.06%

COc1ccsc1CNCC[C@@]1(c2ccccn2)CCOC2(CCCC2)C1 [TRV130, oliceridine, reference compound]
EC50 [1]: 5.77 µM | AUC(0-t) [3]: 319 ± 30.6 ng·h/mL | Cmax [3]: 235 ± 22.7 ng/mL | Tmax [3]: 8.4 ± 6 min | half-life [3]: 56.4 ± 1.8 min | Maximum percentage of analgesia (MPE) 0.5 h [4]: 100.00% | Maximum percentage of analgesia (MPE) 1 h ([4]; n = 10, 0.7 mg/kg): 88.69% | Maximum percentage of analgesia (MPE) 1 h [4, 10]: 88.69±1.52% | Maximum percentage of analgesia (MPE) 2 h ([4]; n = 10, 0.7 mg/kg): 70.01% | Maximum percentage of analgesia (MPE) 2 h [4, 10]: 70.01±8.01% | Maximum percentage of analgesia (MPE) 3 h ([4]; n = 10, 0.7 mg/kg): 49.32% | Maximum percentage of analgesia (MPE) 3 h [4, 10]: 49.32±7.12% | EC50 [5]: 3.14 µM | Mean Expulsion Time [6]: 37.57 ± 4.31^※※ min | Percent Maximum Possible Effect (Percent MPE) [6]: 28.93% | Expulsion Time Prolonging Rate (ETPR) [6]: 836.91%

c1ccc([C@]2(CCNCc3coc4ccccc34)CCOC3(CCCC3)C2)nc1 [Example 2]
EC50 [1]: 39.8 µM | EC50 against κ receptor relative to that of TRV130 ([1]; ratio of EC50 to TRV130): about 7 times | EC50 [2]: 0.0029 µM | EC50 against μ receptor relative to that of TRV130 [2]: the same order of magnitude | AUC(0-t) [3]: 379 ± 63.1 ng·h/mL | Cmax [3]: 309 ± 43 ng/mL | Tmax [3]: 9 ± 0.6 min | half-life [3]: 137 ± 7.8 min | Maximum percentage of analgesia (MPE) 0.5 h [4]: 100.00% | Maximum percentage of analgesia (MPE) 1 h ([4]; n = 10, 0.7 mg/kg): 82.81±9.77% and 82.81% | Maximum percentage of analgesia (MPE) 2 h ([4]; n = 10, 0.7 mg/kg): 79.23±10.51% and 79.23% | Maximum percentage of analgesia (MPE) 3 h ([4]; n = 10, 0.7 mg/kg): 55.50±6.85% and 55.50% | EC50 [5]: 22.2 µM | EC50 against δ receptor relative to that of TRV130 ([5]; ratio of EC50 to TRV130): about 7 times | Mean Expulsion Time [6]: 25.85 ± 5.88^※※♦ min | Percent Maximum Possible Effect (Percent MPE) [6]: 18.83% | Expulsion Time Prolonging Rate (ETPR) [6]: 544.64%
